Read-outs that look alike come from different tables or passages of the source.
Legend:
xBT474 breast tumor = xBT474 breast tumor model (ER-negative/HER2-positive); conditions: Group 2: Fulvestrant 1 mg/dose SC QW*28 days
MCF-7 tumors [1] = type: in vivo; conditions: 1/3/5 mg/dose SC QW, PG-D49
Procedure: The in vivo anti-tumor efficacy of the compound of formula (I) either alone or in combination with fulvestrant on MCF-7 breast tumor model on female Balb/c nude mice was evaluated. The protocol was he same as described in Example 1 with the exception that the dosing schedule of fulvestrant was modified.

MCF-7 tumors [2] = type: in vivo; conditions: for T/C / TGI: PG-D37
Procedure: The in vivo anti-tumor efficacy of the compound of formula (I) either alone or in combination with fulvestrant on MCF-7 breast tumor model on female Balb/c nude mice was assessed. MCF-7 cells are a breast cancer cell line that is HR+HER2−. See Booms et al., (2019) Cancer Epidemiol Biomarkers Prev 28(10); 1735-1745, which is hereby incorporated by reference.
The study was in two parts. The first part was designed to measure tumor growth inhibition (TGI). The second part was used to measure pharmacokinetic and pharmacodynamic (PKPD) parameters. In the studies, the compound of formula (I) was dosed orally (po) and fulvestrant was dosed subcutaneously. […]
The MCF-7 tumor cells were maintained in vitro in MEM supplemented with 10% heat inactivated fetal bovine serum at 37° C. in an atmosphere of 5% CO2 in air. The tumor cells were routinely subcultured twice weekly. The cells growing in an exponential growth phase were harvested and counted for tumor inoculation.
Each mouse was inoculated subcutaneously at the right flank with MCF-7 (10*10^6) cells in 0.2 mL of PBS mixed with Matrigel (50:50) for tumor development. 17β-Estradiol (0.36 mg, 60-day release) pellets (Innovative Research of America Cat. No.: SE-121, pellet size: 3.0 mm) were implanted 2 days before cell inoculation.
In TGI part, the treatments was started on day 7 after cell inoculation when the average tumor volume reaches 173 mm^3. 72 mice were selected and assigned into 9 groups. The testing articles were administrated to the mice according to Table 1.
For TGI part, the major endpoint was to see if the tumor growth could be delayed or mice could be cured. Tumor size was measured twice weekly in two dimensions using a caliper, and the volume was expressed in mm^3 using the formula: V=0.5 a×b^2 where a and b are the long and short diameters of the tumor, respectively. The tumor sizes are then used for the calculation of T/C and TGI values.
The T/C value (in percent) is an indication of antitumor effectiveness; T and C are the mean volume of the treated and control groups, respectively, on a given day.
TGI was calculated for each group using the formula: TGI (%)=[1−(Ti−T0)/(Vi−V0)]×100; Ti is the average tumor volume of a treatment group on PG-Di, T0 is the average tumor volume of the treatment group on the day of treatment start, Vi is the average tumor volume of the vehicle control group on the same day with Ti, and V0 is the average tumor volume of the vehicle group on the day of treatment start.
For comparison among of tumor volume of groups 2-9 and group 1, a one-way ANOVA was performed. All the analysis were conducted using GraphPad Prism software. p<0.05 was considered to be statistically significant.

xMDA-MB-361 breast tumor = xMDA-MB-361 breast tumor model (ER-positive/HER2-positive); type: in vivo, female BALB/c nude mice; conditions: Group 2: Fulvestrant 1 mg/dose SC QW*42 days
Procedure: Trastuzumab, tucatinib, Compound (I), and fulvestrant were tested in a xMDA-MB-361 breast tumor model (ER-positive/HER2-positive) on female BALB/c nude mice.

SMILES: C[C@]12CC[C@@H]3c4ccc(O)cc4C[C@@H](CCCCCCCCC[S+]([O-])CCCC(F)(F)C(F)(F)F)[C@H]3[C@@H]1CC[C@@H]2O (stereo partly shown) [Fulvestrant, reference compound]
- Tumor volume (mean ± SEM) (xBT474 breast tumor; Day 0): 146 ± 10 mm^3
- Tumor volume (mean ± SEM) (xBT474 breast tumor; Day 4): 188 ± 26 mm^3
- Tumor volume (mean ± SEM) (xBT474 breast tumor; Day 7): 187 ± 14 mm^3
- Tumor volume (mean ± SEM) (xBT474 breast tumor; Day 11): 311 ± 55 mm^3
- Tumor volume (mean ± SEM) (xBT474 breast tumor; Day 14): 391 ± 55 mm^3
- Tumor volume (mean ± SEM) (xBT474 breast tumor; Day 18): 468 ± 69 mm^3
- Tumor volume (mean ± SEM) (xBT474 breast tumor; Day 21): 532 ± 79 mm^3
- Tumor volume (mean ± SEM) (xBT474 breast tumor; Day 25): 617 ± 93 mm^3
- Tumor volume (mean ± SEM) (xBT474 breast tumor; Day 28): 741 ± 113 mm^3
- Tumor volume (mean ± SEM) (xBT474 breast tumor; Day 32): 750 ± 115 mm^3
- Tumor volume (mean ± SEM) (xBT474 breast tumor; Day 35): 797 ± 121 mm^3
- Tumor volume (mean ± SEM) (xBT474 breast tumor; Day 39): 800 ± 131 mm^3
- Tumor volume (mean ± SEM) (xBT474 breast tumor; Day 42): 843 ± 146 mm^3
- Tumor volume (mean ± SEM) (xBT474 breast tumor; Day 46): 816 ± 138 mm^3
- T/C (MCF-7 tumors [1]): 38.19%
- TGI (MCF-7 tumors [1]): 71.50%
- Tumor Size (MCF-7 tumors [1]): 451 mm^3
- T/C (MCF-7 tumors [2]; 1 mg/dose QW): 42.68%
- TGI (MCF-7 tumors [2]; 1 mg/dose QW): 62.74%
- Tumor volume (mean ± SEM) (MCF-7 tumors [2]; 1 mg/dose SC QW, day 0): 173 ± 12 mm^3
- Tumor volume (mean ± SEM) (MCF-7 tumors [2]; 1 mg/dose SC QW, day 3): 206 ± 10 mm^3
- Tumor volume (mean ± SEM) (MCF-7 tumors [2]; 1 mg/dose SC QW, day 6): 272 ± 20 mm^3
- Tumor volume (mean ± SEM) (MCF-7 tumors [2]; 1 mg/dose SC QW, day 9): 315 ± 33 mm^3
- Tumor volume (mean ± SEM) (MCF-7 tumors [2]; 1 mg/dose SC QW, day 13): 389 ± 50 mm^3
- Tumor volume (mean ± SEM) (MCF-7 tumors [2]; 1 mg/dose SC QW, day 16): 472 ± 47 mm^3
- Tumor volume (mean ± SEM) (MCF-7 tumors [2]; 1 mg/dose SC QW, day 20): 595 ± 87 mm^3
- Tumor volume (mean ± SEM) (MCF-7 tumors [2]; 1 mg/dose SC QW, day 23): 623 ± 93 mm^3
- Tumor volume (mean ± SEM) (MCF-7 tumors [2]; 1 mg/dose SC QW, day 27): 697 ± 104 mm^3
- Tumor volume (mean ± SEM) (MCF-7 tumors [2]; 1 mg/dose SC QW, day 30): 727 ± 116 mm^3
- Tumor volume (mean ± SEM) (MCF-7 tumors [2]; 1 mg/dose SC QW, day 34): 829 ± 130 mm^3
- Tumor volume (mean ± SEM) (MCF-7 tumors [2]; 1 mg/dose SC QW, day 37): 856 ± 140 mm^3
- Tumor volume (mean ± SEM) (MCF-7 tumors [2]; 1 mg/dose SC QW, day 41): 859 ± 142 mm^3
- Tumor volume (mean ± SEM) (MCF-7 tumors [2]; 1 mg/dose SC QW, day 44): 808 ± 164 mm^3
- Tumor volume (mean ± SEM) (MCF-7 tumors [2]; 1 mg/dose SC QW, day 48): 623 ± 104 mm^3
- T/C (MCF-7 tumors [2]; 3 mg/dose QW): 15.70%
- TGI (MCF-7 tumors [2]; 3 mg/dose QW): 92.26%
- Tumor volume (mean ± SEM) (MCF-7 tumors [2]; 3 mg/dose SC QW, day 0): 173 ± 13 mm^3
- Tumor volume (mean ± SEM) (MCF-7 tumors [2]; 3 mg/dose SC QW, day 3): 181 ± 9 mm^3
- Tumor volume (mean ± SEM) (MCF-7 tumors [2]; 3 mg/dose SC QW, day 6): 205 ± 16 mm^3
- Tumor volume (mean ± SEM) (MCF-7 tumors [2]; 3 mg/dose SC QW, day 9): 240 ± 12 mm^3
- Tumor volume (mean ± SEM) (MCF-7 tumors [2]; 3 mg/dose SC QW, day 13): 310 ± 25 mm^3
- Tumor volume (mean ± SEM) (MCF-7 tumors [2]; 3 mg/dose SC QW, day 16): 337 ± 33 mm^3
- Tumor volume (mean ± SEM) (MCF-7 tumors [2]; 3 mg/dose SC QW, day 20): 285 ± 32 mm^3
- Tumor volume (mean ± SEM) (MCF-7 tumors [2]; 3 mg/dose SC QW, day 23): 288 ± 44 mm^3
- Tumor volume (mean ± SEM) (MCF-7 tumors [2]; 3 mg/dose SC QW, day 27): 275 ± 35 mm^3
- Tumor volume (mean ± SEM) (MCF-7 tumors [2]; 3 mg/dose SC QW, day 30): 294 ± 35 mm^3
- Tumor volume (mean ± SEM) (MCF-7 tumors [2]; 3 mg/dose SC QW, day 34): 314 ± 48 mm^3
- Tumor volume (mean ± SEM) (MCF-7 tumors [2]; 3 mg/dose SC QW, day 37): 315 ± 50 mm^3
- Tumor volume (mean ± SEM) (MCF-7 tumors [2]; 3 mg/dose SC QW, day 41): 329 ± 54 mm^3
- Tumor volume (mean ± SEM) (MCF-7 tumors [2]; 3 mg/dose SC QW, day 44): 294 ± 48 mm^3
- Tumor volume (mean ± SEM) (MCF-7 tumors [2]; 3 mg/dose SC QW, day 48): 228 ± 29 mm^3
- Tumor volume (mean ± SEM) (xMDA-MB-361 breast tumor; Day 0): 157 ± 13 mm^3
- Tumor volume (mean ± SEM) (xMDA-MB-361 breast tumor; Day 3): 185 ± 11 mm^3
- Tumor volume (mean ± SEM) (xMDA-MB-361 breast tumor; Day 7): 226 ± 28 mm^3
- Tumor volume (mean ± SEM) (xMDA-MB-361 breast tumor; Day 10): 321 ± 53 mm^3
- Tumor volume (mean ± SEM) (xMDA-MB-361 breast tumor; Day 14): 489 ± 101 mm^3
- Tumor volume (mean ± SEM) (xMDA-MB-361 breast tumor; Day 17): 588 ± 153 mm^3
- Tumor volume (mean ± SEM) (xMDA-MB-361 breast tumor; Day 21): 773 ± 204 mm^3
- Tumor volume (mean ± SEM) (xMDA-MB-361 breast tumor; Day 24): 890 ± 235 mm^3
- Tumor volume (mean ± SEM) (xMDA-MB-361 breast tumor; Day 28): 1022 ± 256 mm^3
- Tumor volume (mean ± SEM) (xMDA-MB-361 breast tumor; Day 31): 1113 ± 293 mm^3
- Tumor volume (mean ± SEM) (xMDA-MB-361 breast tumor; Day 35): 1192 ± 330 mm^3
- Tumor volume (mean ± SEM) (xMDA-MB-361 breast tumor; Day 38): 1300 ± 344 mm^3
- Tumor volume (mean ± SEM) (xMDA-MB-361 breast tumor; Day 42): 1396 ± 356 mm^3

From US20230000876A1, “TREATING CANCERS WITH A CYCLIN-DEPENDENT KINASE INHIBITOR” (Nuvation Bio Inc., priority 2021, published 2023)
